Assay results from ChEMBL document CHEMBL1177794, “Broad spectrum alkynyl inhibitors of T315I Bcr-Abl” (Bioorg Med Chem Lett, 2010).

How the values were obtained:
[1] = target: Casein kinase I isoform gamma-2 (Homo sapiens) (UniProt P78368); assay: Inhibition of CSNK1G2 at 10 uM; values are per cent of control
[2] = target: Bone morphogenetic protein receptor type-2 (Homo sapiens) (UniProt Q13873); assay: Inhibition of BMPR2 at 10 uM; values are per cent of control
[3] = target: High affinity nerve growth factor receptor (Homo sapiens) (UniProt P04629); assay: Inhibition of TRKA at 10 uM; values are per cent of control
[4] = tested on: Mast/stem cell growth factor receptor Kit (Homo sapiens), P10721 [D816H]; assay: Inhibition of KIT D816H mutant at 10 uM; details: values are per cent of control
Mast/stem cell growth factor receptor Kit (Homo sapiens), P10721 [D816H], sequence (P10721 whole entry D816H, canonical isoform): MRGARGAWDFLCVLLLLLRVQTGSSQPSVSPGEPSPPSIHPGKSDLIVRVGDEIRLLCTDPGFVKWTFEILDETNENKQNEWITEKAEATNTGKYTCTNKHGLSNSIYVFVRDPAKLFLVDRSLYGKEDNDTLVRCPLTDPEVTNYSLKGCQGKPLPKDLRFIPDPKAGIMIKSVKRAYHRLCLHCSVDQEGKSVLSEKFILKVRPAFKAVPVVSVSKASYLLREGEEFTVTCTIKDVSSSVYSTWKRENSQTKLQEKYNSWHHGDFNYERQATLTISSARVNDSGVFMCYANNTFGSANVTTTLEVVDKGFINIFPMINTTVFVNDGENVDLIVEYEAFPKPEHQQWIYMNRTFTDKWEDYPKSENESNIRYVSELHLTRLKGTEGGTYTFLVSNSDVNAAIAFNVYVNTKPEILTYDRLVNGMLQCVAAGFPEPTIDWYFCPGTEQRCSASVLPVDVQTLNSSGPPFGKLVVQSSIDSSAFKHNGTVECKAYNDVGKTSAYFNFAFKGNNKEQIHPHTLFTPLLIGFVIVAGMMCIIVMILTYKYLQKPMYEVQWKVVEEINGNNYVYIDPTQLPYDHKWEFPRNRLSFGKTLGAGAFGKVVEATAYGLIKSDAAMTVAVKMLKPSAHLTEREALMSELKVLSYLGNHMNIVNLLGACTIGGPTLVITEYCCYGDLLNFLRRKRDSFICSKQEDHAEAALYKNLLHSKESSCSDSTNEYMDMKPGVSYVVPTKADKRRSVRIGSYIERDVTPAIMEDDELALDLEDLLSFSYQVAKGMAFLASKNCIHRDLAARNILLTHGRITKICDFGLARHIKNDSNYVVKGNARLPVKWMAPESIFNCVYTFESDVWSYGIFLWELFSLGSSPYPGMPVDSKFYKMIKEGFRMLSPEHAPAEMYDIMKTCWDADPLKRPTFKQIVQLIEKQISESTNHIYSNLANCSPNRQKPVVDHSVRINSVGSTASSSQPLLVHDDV

[5] = target: Phosphatidylinositol 4,5-bisphosphate 3-kinase catalytic subunit beta isoform (Homo sapiens) (UniProt P42338); assay: Inhibition of PIK3CB at 10 uM
[6] = target: Mitogen-activated protein kinase 10 (Homo sapiens) (UniProt P53779); assay: Inhibition of JNK3 at 10 uM; values are per cent of control
[7] = target: Serine/threonine-protein kinase MARK2 (Homo sapiens) (UniProt Q7KZI7); assay: Inhibition of MARK2 at 10 uM; details: values are per cent of control
Serine/threonine-protein kinase MARK2 (Homo sapiens), sequence (Q7KZI7 whole entry): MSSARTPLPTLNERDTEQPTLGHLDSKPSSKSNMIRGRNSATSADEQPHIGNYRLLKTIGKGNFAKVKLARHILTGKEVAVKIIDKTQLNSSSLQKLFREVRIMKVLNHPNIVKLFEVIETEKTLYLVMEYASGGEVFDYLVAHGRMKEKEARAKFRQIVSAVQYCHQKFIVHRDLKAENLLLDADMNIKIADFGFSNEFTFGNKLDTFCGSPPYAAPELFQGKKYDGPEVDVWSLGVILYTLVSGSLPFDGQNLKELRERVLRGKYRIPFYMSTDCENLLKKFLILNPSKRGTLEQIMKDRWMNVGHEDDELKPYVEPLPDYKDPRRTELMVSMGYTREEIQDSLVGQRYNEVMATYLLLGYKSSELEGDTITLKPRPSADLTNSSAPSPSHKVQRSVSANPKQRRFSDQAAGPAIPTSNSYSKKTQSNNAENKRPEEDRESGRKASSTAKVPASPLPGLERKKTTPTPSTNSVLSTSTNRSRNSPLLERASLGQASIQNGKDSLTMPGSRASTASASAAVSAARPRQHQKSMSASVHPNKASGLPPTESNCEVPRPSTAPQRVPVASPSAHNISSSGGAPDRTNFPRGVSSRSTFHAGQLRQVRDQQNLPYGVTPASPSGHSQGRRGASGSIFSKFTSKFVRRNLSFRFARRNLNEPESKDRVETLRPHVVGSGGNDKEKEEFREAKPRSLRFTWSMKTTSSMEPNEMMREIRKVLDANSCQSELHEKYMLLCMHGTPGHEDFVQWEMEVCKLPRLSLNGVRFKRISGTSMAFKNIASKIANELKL

[8] = target: Insulin-like growth factor 1 receptor (Homo sapiens) (UniProt P08069); assay: Inhibition of IGF1R at 10 uM; details: values are per cent of control
[9] = target: Serine/threonine-protein kinase TNNI3K (Homo sapiens) (UniProt Q59H18); assay: Inhibition of TNNI3K at 10 uM; details: values are per cent of control
[10] = target: Ephrin type-A receptor 2 (Homo sapiens) (UniProt P29317); assay: Inhibition of EPHA2 at 10 uM; details: values are per cent of control
[11] = target: Fibroblast growth factor receptor 2 (Homo sapiens) (UniProt P21802); assay: Inhibition of FGFR2 at 10 uM; details: values are per cent of control
[12] = target: Serine/threonine-protein kinase tousled-like 2 (Homo sapiens) (UniProt Q86UE8); assay: Inhibition of TLK2 at 10 uM; details: values are per cent of control
[13] = target: Serine/threonine-protein kinase PknB (Mycobacterium tuberculosis) (UniProt P9WI81); assay: Inhibition of Mycobacterium tuberculosis PKNB at 10 uM
Serine/threonine-protein kinase PknB (Mycobacterium tuberculosis), sequence (P9WI81 whole entry): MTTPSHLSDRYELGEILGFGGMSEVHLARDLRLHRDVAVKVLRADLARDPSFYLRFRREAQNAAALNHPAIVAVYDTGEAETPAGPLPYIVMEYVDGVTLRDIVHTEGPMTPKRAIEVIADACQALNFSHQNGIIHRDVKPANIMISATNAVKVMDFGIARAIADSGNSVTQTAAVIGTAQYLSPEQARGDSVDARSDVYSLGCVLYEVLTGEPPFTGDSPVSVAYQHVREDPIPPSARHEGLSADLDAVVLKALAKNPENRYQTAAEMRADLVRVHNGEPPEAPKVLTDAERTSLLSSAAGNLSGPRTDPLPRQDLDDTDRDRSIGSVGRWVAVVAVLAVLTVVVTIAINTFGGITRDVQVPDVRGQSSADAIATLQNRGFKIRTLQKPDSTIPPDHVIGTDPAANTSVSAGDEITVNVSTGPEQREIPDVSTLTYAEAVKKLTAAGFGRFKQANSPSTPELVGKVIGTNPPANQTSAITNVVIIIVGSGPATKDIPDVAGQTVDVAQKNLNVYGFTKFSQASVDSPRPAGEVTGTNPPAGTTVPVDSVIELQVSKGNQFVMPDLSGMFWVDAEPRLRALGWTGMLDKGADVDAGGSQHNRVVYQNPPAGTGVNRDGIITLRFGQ

[14] = tested on: Tyrosine-protein kinase ABL1 (Homo sapiens), P00519 [Q252H]; assay: Inhibition of non phosphorylated ABL1 Q252H mutant at 10 uM; details: values are per cent of control
[15] = tested on: Tyrosine-protein kinase ABL1 (Homo sapiens), P00519 [Q252H]; assay: Inhibition of phosphorylated ABL1 Q252H mutant at 10 uM; details: values are per cent of control
[16] = target: Glycogen synthase kinase-3 beta (Homo sapiens) (UniProt P49841); assay: Inhibition of GSK3B at 10 uM; details: values are per cent of control
Glycogen synthase kinase-3 beta (Homo sapiens), sequence (P49841 whole entry, looked up): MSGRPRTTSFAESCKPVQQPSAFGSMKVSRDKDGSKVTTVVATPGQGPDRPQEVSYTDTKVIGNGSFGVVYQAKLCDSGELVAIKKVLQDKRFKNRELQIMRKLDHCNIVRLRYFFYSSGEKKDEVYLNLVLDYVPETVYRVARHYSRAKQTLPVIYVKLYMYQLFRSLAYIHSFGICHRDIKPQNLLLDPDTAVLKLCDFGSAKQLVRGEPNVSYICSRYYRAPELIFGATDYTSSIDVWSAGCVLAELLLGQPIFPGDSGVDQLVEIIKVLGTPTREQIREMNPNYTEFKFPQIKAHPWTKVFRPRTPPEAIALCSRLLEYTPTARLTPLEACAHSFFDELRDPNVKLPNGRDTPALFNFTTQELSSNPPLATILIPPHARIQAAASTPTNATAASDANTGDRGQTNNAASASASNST

[17] = Inhibition of FLT3 ITD mutant at 10 uM; details: values are per cent of control
[18] = target: Mitogen-activated protein kinase 4 (Homo sapiens) (UniProt P31152); assay: Inhibition of ERK4 at 10 uM; details: values are per cent of control
[19] = target: Serine/threonine-protein kinase Nek4 (Homo sapiens) (UniProt P51957); assay: Inhibition of NEK4 at 10 uM
[20] = tested on: Phosphatidylinositol 4,5-bisphosphate 3-kinase catalytic subunit alpha isoform (Homo sapiens), P42336 [H1047Y]; assay: Inhibition of PIK3CA H1047Y mutant at 10 uM
[21] = target: Fibroblast growth factor receptor 4 (Homo sapiens) (UniProt P22455); assay: Inhibition of FGFR4 at 10 uM; details: values are per cent of control
[22] = tested on: Mast/stem cell growth factor receptor Kit (Homo sapiens), P10721 [V559D,T670I]; assay: Inhibition of KIT V559D, T670I mutant at 10 uM; details: values are per cent of control
Mast/stem cell growth factor receptor Kit (Homo sapiens), P10721 [V559D,T670I], sequence (P10721 whole entry V559D/T670I): as the sequence (P10721 whole entry D816H, canonical isoform) above, with V559D, T670I, H816D counted along it

[23] = target: Serine/threonine-protein kinase 38-like (Homo sapiens) (UniProt Q9Y2H1); assay: Inhibition of NDR2 at 10 uM
[24] = target: Death-associated protein kinase 2 (Homo sapiens) (UniProt Q9UIK4); assay: Inhibition of DAPK2 at 10 uM; details: values are per cent of control
[25] = target: Serine/threonine-protein kinase Nek2 (Homo sapiens) (UniProt P51955); assay: Inhibition of NEK2 at 10 uM
Serine/threonine-protein kinase Nek2 (Homo sapiens), sequence (P51955 whole entry): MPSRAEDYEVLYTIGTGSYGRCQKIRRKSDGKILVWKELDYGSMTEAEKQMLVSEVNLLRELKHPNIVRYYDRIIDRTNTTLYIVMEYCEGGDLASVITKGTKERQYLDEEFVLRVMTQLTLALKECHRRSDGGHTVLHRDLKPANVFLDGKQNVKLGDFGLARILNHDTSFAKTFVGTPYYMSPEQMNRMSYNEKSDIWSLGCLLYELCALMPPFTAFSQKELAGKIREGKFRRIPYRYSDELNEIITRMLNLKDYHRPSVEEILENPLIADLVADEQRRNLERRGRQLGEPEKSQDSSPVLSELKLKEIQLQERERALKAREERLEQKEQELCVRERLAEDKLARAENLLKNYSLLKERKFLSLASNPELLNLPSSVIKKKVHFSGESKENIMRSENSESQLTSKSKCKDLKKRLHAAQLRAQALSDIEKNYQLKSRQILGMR

[26] = target: Tyrosine-protein kinase HCK (Homo sapiens) (UniProt P08631); assay: Inhibition of HCK at 10 uM; details: values are per cent of control
[27] = target: Phosphorylase b kinase gamma catalytic chain, skeletal muscle/heart isoform (Homo sapiens) (UniProt Q16816); assay: Inhibition of PHKG1 at 10 uM
[28] = target: Dual specificity tyrosine-phosphorylation-regulated kinase 2 (Homo sapiens) (UniProt Q92630); assay: Inhibition of DYRK2 at 10 uM; details: values are per cent of control
Dual specificity tyrosine-phosphorylation-regulated kinase 2 (Homo sapiens), sequence (Q92630 whole entry): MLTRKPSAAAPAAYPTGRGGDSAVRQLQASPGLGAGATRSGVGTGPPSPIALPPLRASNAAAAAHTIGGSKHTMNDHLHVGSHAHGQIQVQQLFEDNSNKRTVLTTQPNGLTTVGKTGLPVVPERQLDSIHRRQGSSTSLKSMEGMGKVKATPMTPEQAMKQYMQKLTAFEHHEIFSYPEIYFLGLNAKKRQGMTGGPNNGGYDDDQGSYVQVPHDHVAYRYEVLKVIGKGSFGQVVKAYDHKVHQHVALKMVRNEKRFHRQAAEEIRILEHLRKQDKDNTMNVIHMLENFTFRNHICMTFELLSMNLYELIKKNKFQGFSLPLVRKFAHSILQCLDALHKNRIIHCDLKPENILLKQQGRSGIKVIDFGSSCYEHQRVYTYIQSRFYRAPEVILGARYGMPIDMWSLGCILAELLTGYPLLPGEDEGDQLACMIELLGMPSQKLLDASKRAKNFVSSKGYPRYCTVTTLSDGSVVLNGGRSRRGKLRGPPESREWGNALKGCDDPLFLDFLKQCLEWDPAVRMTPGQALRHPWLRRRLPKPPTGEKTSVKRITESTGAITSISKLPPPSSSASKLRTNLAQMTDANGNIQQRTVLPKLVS

[29] = target: MAP kinase-activated protein kinase 5 (Homo sapiens) (UniProt Q8IW41); assay: Inhibition of MAPKAPK5 at 10 uM; details: values are per cent of control
[30] = target: Non-receptor tyrosine-protein kinase TNK1 (Homo sapiens) (UniProt Q13470); assay: Inhibition of TNK1 at 10 uM; details: values are per cent of control
[31] = target: Serine/threonine-protein kinase PAK 3 (Homo sapiens) (UniProt O75914); assay: Inhibition of PAK3 at 10 uM; values are per cent of control
[32] = target: Tyrosine-protein kinase receptor Tie-1 (Homo sapiens) (UniProt P35590); assay: Inhibition of TIE1 at 10 uM
[33] = target: Cyclin-dependent kinase 8 (Homo sapiens) (UniProt P49336); assay: Inhibition of CDK8 at 10 uM; values are per cent of control
[34] = target: Protein kinase C epsilon type (Homo sapiens) (UniProt Q02156); assay: Inhibition of PRKCE at 10 uM
[35] = target: Ephrin type-A receptor 6 (Homo sapiens) (UniProt Q9UF33); assay: Inhibition of EPHA6 at 10 uM; details: values are per cent of control
Ephrin type-A receptor 6 (Homo sapiens), sequence (Q9UF33 whole entry, canonical isoform): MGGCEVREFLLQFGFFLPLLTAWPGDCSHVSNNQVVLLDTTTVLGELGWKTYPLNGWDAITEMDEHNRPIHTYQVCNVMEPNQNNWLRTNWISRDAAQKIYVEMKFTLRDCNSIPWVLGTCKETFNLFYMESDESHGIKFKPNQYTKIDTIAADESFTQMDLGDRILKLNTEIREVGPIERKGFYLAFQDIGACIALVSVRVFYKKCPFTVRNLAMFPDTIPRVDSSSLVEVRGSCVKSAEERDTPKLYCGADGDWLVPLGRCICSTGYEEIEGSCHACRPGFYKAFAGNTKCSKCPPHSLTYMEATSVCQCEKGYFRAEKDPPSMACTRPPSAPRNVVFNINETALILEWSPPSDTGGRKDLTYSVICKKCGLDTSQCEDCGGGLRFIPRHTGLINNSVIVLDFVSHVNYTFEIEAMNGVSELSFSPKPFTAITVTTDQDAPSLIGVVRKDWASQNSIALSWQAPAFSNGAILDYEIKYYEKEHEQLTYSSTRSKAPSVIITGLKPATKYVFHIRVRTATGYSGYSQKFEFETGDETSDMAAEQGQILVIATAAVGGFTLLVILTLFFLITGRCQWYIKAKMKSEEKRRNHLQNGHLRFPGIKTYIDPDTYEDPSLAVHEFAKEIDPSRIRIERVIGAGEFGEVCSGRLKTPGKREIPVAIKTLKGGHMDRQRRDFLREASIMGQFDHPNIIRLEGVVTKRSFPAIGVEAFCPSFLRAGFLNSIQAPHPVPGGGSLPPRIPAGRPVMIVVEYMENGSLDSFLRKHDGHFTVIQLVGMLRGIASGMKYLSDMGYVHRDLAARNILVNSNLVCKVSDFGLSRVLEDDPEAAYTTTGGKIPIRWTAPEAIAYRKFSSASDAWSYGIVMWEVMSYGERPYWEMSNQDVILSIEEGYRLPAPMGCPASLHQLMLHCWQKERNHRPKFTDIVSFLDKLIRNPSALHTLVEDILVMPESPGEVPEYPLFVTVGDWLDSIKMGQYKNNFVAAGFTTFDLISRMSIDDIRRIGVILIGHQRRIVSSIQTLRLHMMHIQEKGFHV

[36] = tested on: Phosphatidylinositol 4,5-bisphosphate 3-kinase catalytic subunit alpha isoform (Homo sapiens), P42336 [E545K]; assay: Inhibition of PIK3CA E545K mutant at 10 uM
[37] = target: Serine/threonine-protein kinase OSR1 (Homo sapiens) (UniProt O95747); assay: Inhibition of OSR1 at 10 uM
[38] = target: Serine/threonine-protein kinase TAO1 (Homo sapiens) (UniProt Q7L7X3); assay: Inhibition of TAOK1 at 10 uM
[39] = target: MAP kinase-activated protein kinase 2 (Homo sapiens) (UniProt P49137); assay: Inhibition of MAPKAPK2 at 10 uM; details: values are per cent of control
[40] = target: Mitogen-activated protein kinase 11 (Homo sapiens) (UniProt Q15759); assay: Inhibition of p38beta at 10 uM; values are per cent of control
[41] = target: Leucine-rich repeat serine/threonine-protein kinase 2 (Homo sapiens) (UniProt Q5S007); assay: Inhibition of LRRK2 at 10 uM; details: values are per cent of control
[42] = target: Myosin-IIIb (Homo sapiens) (UniProt Q8WXR4); assay: Inhibition of MYO3B at 10 uM
[43] = target: Ribosomal protein S6 kinase alpha-5 (Homo sapiens) (UniProt O75582); assay: Inhibition of RPS6KA5 N-terminal domain1 at 10 uM

CCN1CCN(Cc2ccc(NC(=O)c3ccc(C)c(C#Cc4cnc5[nH]ccc5c4)c3)cc2C(F)(F)F)CC1
level, % of control [1]: 14%
level, % of control [2]: 61%
level, % of control [3]: 0.3%
residual binding, % of control [4]: 8.2%
inhibition [5]: 85%
level, % of control [6]: 1.8%
residual binding, % of control [7]: 83%
residual binding, % of control [8]: 95%
residual binding, % of control [9]: 0%
residual binding, % of control [10]: 0.35%
residual binding, % of control [11]: 0.5%
residual binding, % of control [12]: 100%
inhibition [13]: 98%
residual binding, % of control [14]: 1.6%
residual binding, % of control [15]: 0.2%
residual binding, % of control [16]: 90%
residual binding, % of control [17]: 0.15%
residual binding, % of control [18]: 26%
inhibition [19]: 14%
inhibition [20]: 82%
residual binding, % of control [21]: 0%
residual binding, % of control [22]: 0%
inhibition [23]: 11%
residual binding, % of control [24]: 100%
inhibition [25]: 100%
residual binding, % of control [26]: 0.15%
inhibition [27]: 100%
residual binding, % of control [28]: 51%
residual binding, % of control [29]: 98%
residual binding, % of control [30]: 0.8%
% of control [31]: 1.1%
inhibition [32]: 1.1%
level, % of control [33]: 18%
inhibition [34]: 78%
residual binding, % of control [35]: 0.15%
inhibition [36]: 98%
inhibition [37]: 60%
inhibition [38]: 0%
residual binding, % of control [39]: 100%
level, % of control [40]: 0%
residual binding, % of control [41]: 6.2%
inhibition [42]: 0%
inhibition [43]: 20%

CCN1CCN(Cc2ccc(NC(=O)c3ccc(C)c(C#Cc4cccnc4)c3)cc2C(F)(F)F)CC1
level, % of control [1]: 100%
level, % of control [2]: 70%
level, % of control [3]: 0.35%
residual binding, % of control [4]: 6%
inhibition [5]: 100%
level, % of control [6]: 0.95%
residual binding, % of control [7]: 100%
residual binding, % of control [8]: 100%
residual binding, % of control [9]: 0%
residual binding, % of control [10]: 0.4%
residual binding, % of control [11]: 0.5%
residual binding, % of control [12]: 100%
inhibition [13]: 87%
residual binding, % of control [14]: 6.4%
residual binding, % of control [15]: 0.7%
residual binding, % of control [16]: 99%
residual binding, % of control [17]: 0.1%
residual binding, % of control [18]: 100%
inhibition [19]: 6.4%
inhibition [20]: 81%
residual binding, % of control [21]: 0%
residual binding, % of control [22]: 0%
inhibition [23]: 8.7%
residual binding, % of control [24]: 100%
inhibition [25]: 100%
residual binding, % of control [26]: 0.05%
inhibition [27]: 88%
residual binding, % of control [28]: 48%
residual binding, % of control [29]: 95%
residual binding, % of control [30]: 0%
% of control [31]: 3.3%
inhibition [32]: 1.6%
level, % of control [33]: 8.2%
inhibition [34]: 54%
residual binding, % of control [35]: 0%
inhibition [36]: 85%
inhibition [37]: 48%
inhibition [38]: 0.25%
residual binding, % of control [39]: 85%
level, % of control [40]: 0%
residual binding, % of control [41]: 3.4%
inhibition [42]: 0%
inhibition [43]: 59%
